NC(=O)c1ccccc1O
solubility (mole fraction)
Settings | 243.15 K | 248.15 K | 253.15 K | 258.15 K | 263.15 K | 268.15 K | 273.15 K | 278.15 K | 283.15 K
in acetone | – | – | 0.0592 | 0.0639 | 0.0703 | 0.077 | 0.0839 | 0.0911 | 0.0986
in acetonitrile | 0.005 | 0.006 | 0.0071 | 0.0087 | 0.0108 | 0.012 | 0.0143 | 0.017 | 0.0199
in ethyl acetate | – | – | 0.0305 | 0.0335 | 0.0374 | 0.0406 | 0.0446 | 0.0497 | 0.0547
in methanol | – | – | 0.012 | 0.0136 | 0.0157 | 0.0181 | 0.0204 | 0.0233 | 0.0266

O=C(O)c1ccccc1O
solubility (mole fraction)
Settings | 243.15 K | 248.15 K | 253.15 K | 258.15 K | 263.15 K | 268.15 K | 273.15 K | 278.15 K | 283.15 K
in acetone | – | – | 0.0913 | 0.0978 | 0.108 | 0.114 | 0.122 | 0.138 | 0.143
in acetonitrile | 0.0052 | 0.0061 | 0.0071 | 0.0084 | 0.01 | 0.012 | 0.0141 | 0.0159 | 0.0185
in ethyl acetate | – | – | 0.0554 | 0.0651 | 0.075 | 0.086 | 0.09 | 0.099 | 0.107
in methanol | – | – | 0.0605 | 0.065 | 0.0699 | 0.075 | 0.083 | 0.09 | 0.1
